Laboratory results taken from US8669054B2, “Marker for gastric cancer and method for detecting gastric cancer” (The Chinese University of Hong Kong, priority 2010, dated 2014).

Test system: PAX5 gene expression in methylated GC and CRC cell lines
Assay: Demethylation treatment with 5-Aza; PAX5 expression by semiquantitative RT-PCR
Format: cell-based, human
Settings: 2 μM 5-Aza for 5 days; AGS, MKN28, KatoIII, HCT116, SW620 and SW480
Method: Semiquantitative RT-PCR was performed in a total volume of 25 μL reaction containing GeneAmp 1×PCR Buffer II (Applied Biosystems), 2.5 mM MgCl2, 200 μM each of dNTP, 200 nM each of primers, 0.5 U of AmpliTaq Gold DNA polymerase (Applied Biosystems) and 30˜50 ng cDNA. […] The PCR bands were visualized under ultraviolet light and photographed. The expression of the target gene was normalized by the expression of house keeping gene β-actin, which served as an internal control. […] Cells were then treated with 2 μM 5-aza-2′-deoxycytidine (“5-Aza”) (Sigma-Aldrich) for 5 days. The 5-Aza was replenished every day.

Nc1ncn([C@H]2C[C@H](O)[C@@H](CO)O2)c(=O)n1 [5-Aza, 5-aza-2′-deoxycytidine]
PAX5 gene expression after 5-Aza demethylation treatment (RT-PCR): restore expression
